The experiment has as its system MAGI cells cytotoxicity, 2% serum, % cell control. In words: viability reduction in MAGI cells – cell-based, CCR5-tropic MAGI assay, 2% serum, set 4, cytotoxicity control for HIV-1 antiviral lead project, dose response (AID 504576).
As usually defined, the CC50 is the concentration giving 50% cytotoxicity. As for `COc1ccc(Cn2c(O)cc3nn(-c4nc5ccccc5s4)c(=O)c-3c2C)cc1`, the 50% cytotoxic concentration (CC50) was 41.1 µM.

For the compound `Cc1c2c(=O)n(-c3nc4ccccc4s3)nc-2cc(O)n1Cc1ccccc1Cl`, the CC50 was 32.9 µM.

As for `Cc1c2c(=O)n(-c3nc4ccccc4s3)nc-2cc(O)n1CCc1ccc(O)cc1`, the cytotoxic concentration (CC50) was 20.5 µM.

On to `COc1ccc(CCn2c(O)cc3nn(-c4nc5ccccc5s4)c(=O)c-3c2C)cc1`, for which the CC50 was 13.8 µM.

`COc1ccccc1Cn1c(O)cc2nn(-c3nc4ccccc4s3)c(=O)c-2c1C`: the CC50 was 43.2 µM.

Regarding `Cc1c2c(=O)n(-c3nc4ccccc4s3)nc-2cc(O)n1CCc1cccs1`, the cytotoxic concentration (CC50) is 74.8 µM.

Consider `Cc1c2c(=O)n(-c3nc4ccccc4s3)nc-2cc(O)n1CCC(C)C`, for which the 50% cytotoxic concentration (CC50) was 65 µM.
